Laboratory results taken from US20230134859A1, “METHOD FOR SCREENING FOR, METHOD FOR PRODUCING, AND METHOD FOR DESIGNING DRUG ACTIVE INGREDIENTS” (SKY PHARMA CO., LTD., priority 2020, published 2023).

Legend:
[1] = tested on: sox1α, sox2, sox3, and her6; test: Test Example 1: quantitative PCR of neural stem cell markers in brains of treated zebrafish; type: in vivo; settings: brain of treated zebrafish individuals; ΔΔCt; vs control
Protocol: Moreover, the brains of the treated zebrafish individuals were dissected and washed with sterile distilled water, and then crushed by pipetting or 1 ml syringe suction discharge with 18 G to 24 G needles in 500 μl of Sepasol-RNA I Super G (Nacalai Tesque). A deproteinization operation was conducted once by equivalent phenol/chloroform treatment and once by chloroform treatment, and the supernatant was subjected to RNA purification using an RNA purification column (RNeasy Plus Mini Kit, Qiagen). The elute was reverse-transcribed using a mixed primer of random hexamer and oligo-dT (ReverTra Ace qPCR Kit, TOYOBO) at 37° C. for 15 minutes and 98° C. for 5 minutes, and quantitative PCR of expression levels of sox1α, sox2, sox3, and her6, which are markers of neural stem cells, was performed. Quantitative PCR was performed with SYBER Green Realtime PCR Master Mix (TOYOBO). For the PCR reaction, ABI PRISM 7700 or LightCycler from Roche Diagnostics K.K. was used. Quantification was performed in 3 wells per identical sample (n=3). The obtained data was comparatively quantified by a ΔΔCt method using a normalizer (β-actin, GAPDH, 18S, or the like). In order to confirm that the quantitative reaction was reliable, it was confirmed that the amplification product was in a band by agarose electrophoresis.

retinal ganglion cells = test: Test Example 5: regeneration induction of mouse retinal neurons by eye drop in high intraocular pressure glaucoma model; type: in vivo; settings: 100 μM eye drops to both eyes three times a day; 10 days to 1 month; vs control
Protocol: High intraocular glaucoma model mouse (transgenic lines specifically expressing green fluorescent protein (GFP) in retinal ganglion cells)
To an adult of a high intraocular pressure glaucoma model mouse, a solution prepared by dissolving 100 μM of the test compound in 1% methyl cellulose/physiological saline was administered by instillation to both eyes at […] per a time three times a day.
As a control experiment (control), an experiment of instilling 1% methyl cellulose/physiological saline containing no test compound was also performed.

Purkinje cells = test: Test Example 6: increase in Purkinje cells of adult mouse after injection into E11.5 fetal ventricle; type: in vivo; settings: test compounds = Compounds 1 to 7; 100 μM injected into E11.5 fetal ventricle, counted in adult mice; vs control; N=10
Protocol: A solution prepared by dissolving 100 μM of the test compound in physiological saline was injected into E11.5 mouse fetal ventricle. Brains of adult mouse individuals were fixed, and slice sections of cerebellar Purkinje cell layers were immunostained with an anti-d-Calbindin antibody, which is a marker of cell bodies and neurites of Purkinje cells. After staining, the number of Purkinje cells was counted, and the average value thereof was calculated.
As a control experiment (control), a similar experiment was performed using physiological saline containing no test compound.
The number of samples is 10 for each of Compounds 1 to 7 and control (N=10).

pancreatic β cells = test: Test Example 9: pancreatic β cells and insulin in transgenic zebrafish embryos; type: in vivo; settings: vs control
Protocol: Transgenic zebrafish expressing pancreatic β-cell GFP
Transgenic zebrafish embryos expressing pancreatic β-cell GFP at 10 hours after fertilization were held with the dorsal side of the head up on a coffin, and a glass capillary was inserted from the dorsal side into a gap just below the midline neural tube at about 2 times the distance between the rostral end and the ear vesicles to the caudal side (pancreatic primordium). A nitrogen gas pressure (15 picosiemens) was applied for 15 to 45 milliseconds, and the test compound was injected. The concentration of the test compound was 100 nM/E3, and 0.025% (final concentration) phenol red was mixed as a tracer of the infusion solution. The injection was performed in pulses with a foot pedal and continued until phenol red was distributed in an elliptical shape with a major axis of 200 μm from the insertion point.
The test compound (100 nM) was injected on a coffin in transgenic zebrafish embryos expressing pancreatic β-cell GFP at 10 hours after fertilization. After injection, embryos were cultured in E3 at 28.5° C. for 14 hours. After chorions were removed with tweezers, the embryos were fixed with 4% paraformaldehyde/PBS at room temperature for 1 hour, and in situ hybridization was performed overnight at 65° C. in the presence of a DIG probe of insulin (ins) according to a conventional method. After washing, β cells were stained by an alkali phosphatase color reaction using an anti-DIG antibody. After staining, the embryos were washed with PBS, embedded in 75% glycerin/PBS and localized, and then microscopically photographed with incident light. The number of test individuals was unified with n=100 for each test compound (FIG. 23).
Transgenic zebrafish embryos expressing pancreatic β-cell GFP at 10 hours after fertilization were injected with the test compound (100 nM or 5 nM) on the coffin. After injection, embryos were cultured in E3 at 28.5° C. for 20 hours in the presence of 0.2 mM phenylthiourea (PTU). After chorions were removed with tweezers, the embryos were fixed with 4% paraformaldehyde/PBS at normal temperature for 1 hour, immunohistochemically reacted with an anti-insulin antibody according to a conventional method, and then reacted with an Alexa fluor 488 anti-mouse IgG secondary antibody. The reacted embryos were washed with PBS, embedded in 75% glycerin/PBS and localized, and then microscopically photographed with 488 nm excitation light (FIG. 24). The number of tested individuals was unified with n=10 for each compound. The insulin amount was quantified by measuring the average fluorescence intensity in a circle with a radius of 100 μm centered on the fluorescence point (FIG. 25).

[2] = tested on: T-cell type acute lymphocytic leukemia model; test: Test Example 10: verification of anticancer effect in T-cell type acute lymphocytic leukemia model; type: in vivo, zebrafish
Protocol: T-cell type acute lymphocytic leukemia model specifically expressing GFP in vascular endothelial cells
A liquid agent prepared by adding a compound to E3 Ringer to adjust to 100 μM was microscopically injected into the body ventral main vessel of an embryo of a T cell-type acute lymphatic leukemia model individual 24 hours after fertilization. E3 Ringer was similarly microscopically injected as a control. At the time of microinjection, embryos were held on the body side up in a 3% methylcellulose/E3 Ringer/0.02% tricaine solution on a glass slide, and then a glass capillary was inserted into an abdominal main vessel running in the head-to-tail direction at the boundary between the body wall and egg yolk. Then, a nitrogen gas pressure (15 picosiemens) was applied for 30 to 45 milliseconds, and the mixture was injected into the blood vessel. At this time, 0.025% (final concentration) phenol red was mixed as a tracer of the injection solution. The amount to be injected was adjusted by applying gas pressure in a pulsed manner until a large blood vessel of the whole body became uniform and thin red due to blood flow. […]
In addition, survival rates of drug-injected individuals and control individuals were counted. […]

Structure (SMILES): CNS(=O)(=O)c1ccccc1Nc1nc(Nc2ccc(N3CCN(C)CC3)cc2OC)ncc1Cl [Compound 7, 2-[[5-Chloro-2-[2-methoxy-4-(4-methylpiperazin-1-yl)anilino]pyrimidin-4-yl]amino]-N-methylbenzenesulfonamide]
- expression levels of sox1α, sox2, sox3, and her6 (quantitative PCR) [1]: significant increase in expression levels
- amplification of retinal ganglion cells (retinal ganglion cells): amplification of retinal ganglion cells was remarkably observed
- number of Purkinje cells in the cerebellar Purkinje cell layers (Purkinje cells): significantly higher than that of the control
- number of β cells (pancreatic β-cell GFP fluorescence) (pancreatic β cells; 100 nM injected at pancreatic primordium 10 h after fertilization, observed up to 48 h): increased as compared with the control individual
- production amount of insulin by β cells (in situ hybridization, ins probe) (pancreatic β cells; 100 nM, 14 h after injection, n=100): significantly increased as compared with the control individual
- thickening and tumorigenesis of vascular endothelium ([2]; 100 μM injected into ventral main vessel at 24, 36 and 48 h after fertilization, observed at 56 h, vs control): thickening and tumorigenesis of the endothelium were observed
- survival rate on Day 28 ([2]; leukemia model individuals injected with 100 μM, three tests, control 22.4%±4.56): 55.9%±6.07
